Experimental data as given in ChEMBL document CHEMBL3045535, “Evaluation of lufenuron as a chemosterilant against fruit flies of the genus Anastrepha (Diptera: Tephritidae)” (2010).
Activity calls are given as the source filed them. The rule behind the calls is not given here.

Assays:
Anastrepha serpentina [1] = test: Reduction of fertility in 7 days old adult of Anastrepha serpentina assessed as reduction of egg hatching at 5 mg/g treated with diet measured after 11 days oviposition; type: functional; design: scale not given: the % may be the effect or the level left
Anastrepha obliqua [2] = test: Reduction of fertility in 7 days old adult of Anastrepha obliqua assessed as reduction of egg hatching at 1 mg/g treated with diet measured after 11 days oviposition; type: functional; design: scale not given: the % may be the effect or the level left
Anastrepha striata [3] = test: Reduction of fertility in 7 days old adult of Anastrepha striata assessed as reduction of egg hatching at 30 mg/g treated with diet measured after 11 days oviposition; type: functional; design: scale not given: the % may be the effect or the level left
Anastrepha obliqua [4] = test: Reduction of fertility in 7 days old adult of Anastrepha obliqua assessed as reduction of egg hatching at 30 mg/g treated with diet measured after 9 days oviposition; type: functional; design: scale not given: the % may be the effect or the level left
Anastrepha ludens [5] = test: Reduction of fertility in 7 days old adult of Anastrepha ludens assessed as reduction of egg hatching at 5 mg/g treated with diet measured after 1 day oviposition; type: functional; design: scale not given: the % may be the effect or the level left
Anastrepha ludens [6] = test: Reduction of fertility in 7 days old adult of Anastrepha ludens assessed as reduction of egg hatching at 30 mg/g treated with diet measured after 1 day oviposition; type: functional; design: scale not given: the % may be the effect or the level left
Anastrepha ludens [7] = test: Reduction of fertility in 7 days old adult of Anastrepha ludens assessed as reduction of egg hatching at 5 mg/g treated with diet measured after 7 days oviposition; type: functional; design: scale not given: the % may be the effect or the level left
Anastrepha obliqua [8] = test: Reduction of fertility in 7 days old adult of Anastrepha obliqua assessed as reduction of egg hatching at 0.5 mg/g treated with diet measured after 11 days oviposition; type: functional; design: scale not given: the % may be the effect or the level left
Anastrepha obliqua [9] = test: Reduction of fertility in 7 days old adult of Anastrepha obliqua assessed as reduction of egg hatching at 0.5 mg/g treated with diet measured after 5 days oviposition; type: functional; design: scale not given: the % may be the effect or the level left
Anastrepha serpentina [10] = test: Effect on fertility in 7 days old adult female of Anastrepha serpentina at 30 mg/g treated with diet after 24 hr in presence of untreated adult male of Anastrepha serpentina; type: functional, organism-based
Anastrepha striata [11] = test: Reduction of fertility in 7 days old adult of Anastrepha striata assessed as reduction of egg hatching at 0.1 mg/g treated with diet measured after 5 days oviposition; type: functional; design: scale not given: the % may be the effect or the level left
Anastrepha obliqua [12] = test: Reduction of fertility in 7 days old adult of Anastrepha obliqua assessed as reduction of egg hatching at 5 mg/g treated with diet measured after 9 days oviposition; type: functional; design: scale not given: the % may be the effect or the level left
Anastrepha obliqua [13] = test: Reduction of fertility in 7 days old adult of Anastrepha obliqua assessed as reduction of egg hatching at 30 mg/g treated with diet measured after 1 day oviposition; type: functional; design: scale not given: the % may be the effect or the level left
Anastrepha striata [14] = test: Reduction of fertility in 7 days old adult of Anastrepha striata assessed as reduction of egg hatching at 10 mg/g treated with diet measured after 5 days oviposition; type: functional; design: scale not given: the % may be the effect or the level left
Anastrepha serpentina [15] = test: Reduction of fertility in 7 days old adult of Anastrepha serpentina assessed as reduction of egg hatching at 0.1 mg/g treated with diet measured after 1 day oviposition; type: functional; design: scale not given: the % may be the effect or the level left
Anastrepha ludens [16] = test: Reduction of fertility in 7 days old adult of Anastrepha ludens assessed as reduction of egg hatching at 0.1 mg/g treated with diet measured after 11 days oviposition; type: functional; design: scale not given: the % may be the effect or the level left
Anastrepha obliqua [17] = test: Reduction of fertility in 7 days old adult of Anastrepha obliqua assessed as reduction of egg hatching at 1 mg/g treated with diet measured after 1 day oviposition; type: functional; design: scale not given: the % may be the effect or the level left
Anastrepha obliqua [18] = test: Effect on fertility in 7 days old adult female of Anastrepha obliqua at 30 mg/g treated with diet after 24 hr in presence of untreated adult male of Anastrepha obliqua; type: functional, organism-based
Anastrepha serpentina [19] = test: Reduction of fertility in 7 days old adult of Anastrepha serpentina assessed as reduction of egg hatching at 5 mg/g treated with diet measured after 1 day oviposition; type: functional; design: scale not given: the % may be the effect or the level left
Anastrepha ludens [20] = test: Reduction of fertility in 7 days old adult of Anastrepha ludens assessed as reduction of egg hatching at 30 mg/g treated with diet measured after 3 days oviposition; type: functional; design: scale not given: the % may be the effect or the level left
Anastrepha serpentina [21] = test: Reduction of fertility in 7 days old adult of Anastrepha serpentina assessed as reduction of egg hatching at 5 mg/g treated with diet measured after 5 days oviposition; type: functional; design: scale not given: the % may be the effect or the level left
Anastrepha obliqua [22] = test: Reduction of fertility in 7 days old adult of Anastrepha obliqua assessed as reduction of egg hatching at 0.1 mg/g treated with diet measured after 11 days oviposition; type: functional; design: scale not given: the % may be the effect or the level left
Anastrepha ludens [23] = test: Reduction of fertility in 7 days old adult of Anastrepha ludens assessed as reduction of egg hatching at 0.1 mg/g treated with diet measured after 7 days oviposition; type: functional; design: scale not given: the % may be the effect or the level left
Anastrepha obliqua [24] = test: Reduction of fertility in 7 days old adult of Anastrepha obliqua assessed as reduction of egg hatching at 0.5 mg/g treated with diet measured after 1 day oviposition; type: functional; design: scale not given: the % may be the effect or the level left
Anastrepha serpentina [25] = test: Reduction of fertility in 7 days old adult of Anastrepha serpentina assessed as reduction of egg hatching at 1 mg/g treated with diet measured after 7 days oviposition; type: functional; design: scale not given: the % may be the effect or the level left
Anastrepha serpentina [26] = test: Reduction of fertility in 7 days old adult of Anastrepha serpentina assessed as reduction of egg hatching at 30 mg/g treated with diet measured after 1 day oviposition; type: functional; design: scale not given: the % may be the effect or the level left
Anastrepha ludens [27] = test: Reduction of fertility in 7 days old adult of Anastrepha ludens assessed as reduction of egg hatching at 0.5 mg/g treated with diet measured after 3 days oviposition; type: functional; design: scale not given: the % may be the effect or the level left
Anastrepha ludens [28] = test: Effect on fecundity in 7 days old adult male of Anastrepha ludens at 30 mg/g treated with diet after 24 hr in presence of untreated adult female of Anastrepha ludens; type: functional, organism-based
Anastrepha ludens [29] = test: Reduction of fertility in 7 days old adult of Anastrepha ludens assessed as reduction of egg hatching at 5 mg/g treated with diet measured after 9 days oviposition; type: functional; design: scale not given: the % may be the effect or the level left
Anastrepha ludens [30] = test: Reduction of fertility in 7 days old adult of Anastrepha ludens assessed as reduction of egg hatching at 1 mg/g treated with diet measured after 11 days oviposition; type: functional; design: scale not given: the % may be the effect or the level left
Anastrepha striata [31] = test: Reduction of fertility in 7 days old adult of Anastrepha striata assessed as reduction of egg hatching at 0.5 mg/g treated with diet measured after 3 days oviposition; type: functional; design: scale not given: the % may be the effect or the level left
Anastrepha striata [32] = test: Reduction of fertility in 7 days old adult of Anastrepha striata assessed as reduction of egg hatching at 10 mg/g treated with diet measured after 11 days oviposition; type: functional; design: scale not given: the % may be the effect or the level left
Anastrepha obliqua [33] = test: Reduction of fertility in 7 days old adult of Anastrepha obliqua assessed as reduction of egg hatching at 10 mg/g treated with diet measured after 7 days oviposition; type: functional; design: scale not given: the % may be the effect or the level left
Anastrepha serpentina [34] = test: Reduction of fertility in 7 days old adult of Anastrepha serpentina assessed as reduction of egg hatching at 10 mg/g treated with diet measured after 7 days oviposition; type: functional; design: scale not given: the % may be the effect or the level left
Anastrepha ludens [35] = test: Reduction of fertility in 7 days old adult of Anastrepha ludens assessed as reduction of egg hatching at 0.5 mg/g treated with diet measured after 5 days oviposition; type: functional; design: scale not given: the % may be the effect or the level left
Anastrepha ludens [36] = test: Effect on fertility in 7 days old adult female of Anastrepha ludens at 30 mg/g treated with diet after 24 hr in presence of untreated adult male of Anastrepha ludens; type: functional, organism-based
Anastrepha ludens [37] = test: Reduction of fertility in 7 days old adult of Anastrepha ludens assessed as reduction of egg hatching at 0.1 mg/g treated with diet measured after 9 days oviposition; type: functional; design: scale not given: the % may be the effect or the level left
Anastrepha obliqua [38] = test: Reduction of fertility in 7 days old adult of Anastrepha obliqua assessed as reduction of egg hatching at 5 mg/g treated with diet measured after 5 days oviposition; type: functional; design: scale not given: the % may be the effect or the level left
Anastrepha serpentina [39] = test: Reduction of fertility in 7 days old adult of Anastrepha serpentina assessed as reduction of egg hatching at 0.1 mg/g treated with diet measured after 7 days oviposition; type: functional; design: scale not given: the % may be the effect or the level left
Anastrepha striata [40] = test: Reduction of fertility in 7 days old adult of Anastrepha striata assessed as reduction of egg hatching at 5 mg/g treated with diet measured after 7 days oviposition; type: functional; design: scale not given: the % may be the effect or the level left

`O=C(NC(=O)c1c(F)cccc1F)Nc1cc(Cl)c(OC(F)(F)C(F)C(F)(F)F)cc1Cl` (racemic) [LUFENURON] gave an Activity (Anastrepha serpentina [1]) of 86.7%, an Activity (Anastrepha obliqua [2]) of 0.7% and an Activity (Anastrepha striata [3]) of 8%. The Activity (Anastrepha obliqua [4]) was 1.3%, the Activity (Anastrepha ludens [5]) was 19.3% and the Activity (Anastrepha ludens [6]) was 3%. For the same molecule, the Activity (Anastrepha ludens [7]) was 28%, the Activity (Anastrepha obliqua [8]) was 4% and the Activity (Anastrepha obliqua [9]) was 0%. The Activity (Anastrepha serpentina [10]) was “inactive”, the Activity (Anastrepha striata [11]) was 60.7% and the Activity (Anastrepha obliqua [12]) was 0.7%. The Activity (Anastrepha obliqua [13]) was 0%, the Activity (Anastrepha striata [14]) was 2% and the Activity (Anastrepha serpentina [15]) was 98.9%. For the same molecule, the Activity (Anastrepha ludens [16]) was 66.7%, the Activity (Anastrepha obliqua [17]) was 0% and the Activity (Anastrepha obliqua [18]) was “inactive”. The Activity (Anastrepha serpentina [19]) was 34.8%, the Activity (Anastrepha ludens [20]) was 2.7% and the Activity (Anastrepha serpentina [21]) was 83.1%. The Activity (Anastrepha obliqua [22]) was 10.7%, the Activity (Anastrepha ludens [23]) was 43.3% and the Activity (Anastrepha obliqua [24]) was 8.7%. The Activity (Anastrepha serpentina [25]) was 92.5%, the Activity (Anastrepha serpentina [26]) was 49.2% and the Activity (Anastrepha ludens [27]) was 12%. The Activity (Anastrepha ludens [28]) was “inactive”, the Activity (Anastrepha ludens [29]) was 30.7% and the Activity (Anastrepha ludens [30]) was 40%. For the same molecule, the Activity (Anastrepha striata [31]) was 22.7%, the Activity (Anastrepha striata [32]) was 6% and the Activity (Anastrepha obliqua [33]) was 1.3%. For the same molecule, the Activity (Anastrepha serpentina [34]) was 65.8%, the Activity (Anastrepha ludens [35]) was 10.7% and the Activity (Anastrepha ludens [36]) was “inactive”. The Activity (Anastrepha ludens [37]) was 44.7%, the Activity (Anastrepha obliqua [38]) was 0% and the Activity (Anastrepha serpentina [39]) was 96.7%. It also gave an Activity (Anastrepha striata [40]) of 0.7%.
